Experimental data as given in PubChem BioAssay AID1963969 (Molecular Pharmacology Branch, DTP, NCI, 2024).
pIC50: −log10 of the molar value.

Test system: 817829-284-R-J1-PDC multi-cell spheroid viability
Assay: Anticancer human tumor 817829-284-R-J1-PDC patient-derived colon adenocarcinoma cell line growth inhibition [PI3K]
Settings: for pIC50: curve of first compound; for viability, T/C: stronger effect = lower value
Method in brief: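 Targeted small molecules plus PI3K inhibitors, half-log dose series from Cmax (default top 10 microM), were applied to heterotypic spheroids of cancer cells with HUVEC and MSCs. Viability indicated growth inhibition.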

[1] = second compound 0.0316 µM, first compound 0.0316 µM
[2] = second compound 0.0316 µM, first compound 0.1 µM
[3] = second compound 0.1 µM, first compound 0.0316 µM
[4] = second compound 0.1 µM, first compound 0.1 µM
[5] = second compound 0.316 µM, first compound 0.0316 µM
[6] = second compound 0.316 µM, first compound 0.1 µM
[7] = second compound 1 µM, first compound 0.0316 µM
[8] = second compound 1 µM, first compound 0.1 µM
[9] = second compound 3.16 µM, first compound 0.0316 µM
[10] = second compound 3.16 µM, first compound 0.1 µM
[11] = second compound 10 µM, first compound 0.0316 µM
[12] = second compound 10 µM, first compound 0.1 µM
[13] = second compound 0.0316 µM, first compound 0.316 µM
[14] = second compound 0.0316 µM, first compound 1 µM
[15] = second compound 0.0316 µM, first compound 3.16 µM
[16] = second compound 0.0316 µM, first compound 10 µM
[17] = second compound 0.1 µM, first compound 0.316 µM
[18] = second compound 0.1 µM, first compound 1 µM
[19] = second compound 0.1 µM, first compound 3.16 µM
[20] = second compound 0.1 µM, first compound 10 µM
[21] = second compound 0.316 µM, first compound 0.316 µM
[22] = second compound 0.316 µM, first compound 1 µM
[23] = second compound 0.316 µM, first compound 3.16 µM
[24] = second compound 0.316 µM, first compound 10 µM
[25] = second compound 1 µM, first compound 0.316 µM
[26] = second compound 1 µM, first compound 1 µM
[27] = second compound 1 µM, first compound 3.16 µM
[28] = second compound 1 µM, first compound 10 µM
[29] = second compound 3.16 µM, first compound 0.316 µM
[30] = second compound 3.16 µM, first compound 1 µM
[31] = second compound 3.16 µM, first compound 3.16 µM
[32] = second compound 3.16 µM, first compound 10 µM
[33] = second compound 10 µM, first compound 0.316 µM
[34] = second compound 10 µM, first compound 1 µM
[35] = second compound 10 µM, first compound 3.16 µM
[36] = second compound 10 µM, first compound 10 µM
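Further: spheroids exposed to agents for seven days before readout.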
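Wherever viability, T/C is given: percent of vehicle DMSO control viability which is 100%.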

CC(=O)c1c(C)c2cnc(Nc3ccc(N4CCNCC4)cn3)nc2n(C2CCCC2)c1=O + Cc1nc(NC(=O)N2CCCC2C(N)=O)sc1-c1ccnc(C(C)(C)C(F)(F)F)c1
pIC50 (second compound 0.0316 µM): 7.57
pIC50 (second compound 0.1 µM): 8.36
pIC50 (second compound 0.316 µM): 7.63
pIC50 (second compound 1 µM): 8.49
pIC50 (second compound 3.16 µM): 8.69
pIC50 (second compound 10 µM): > 9.50
viability, T/C (second compound 0.0316 µM, first compound 0.000316 µM): 88.4%
viability, T/C (second compound 0.0316 µM, first compound 0.001 µM): 96.1%
viability, T/C (second compound 0.0316 µM, first compound 0.00316 µM): 70.8%
viability, T/C (second compound 0.0316 µM, first compound 0.01 µM): 60.1%
viability, T/C [1]: 52.8%
viability, T/C [2]: 38.2%
viability, T/C (second compound 0.1 µM, first compound 0.000316 µM): 71.2%
viability, T/C (second compound 0.1 µM, first compound 0.001 µM): 79.7%
viability, T/C (second compound 0.1 µM, first compound 0.00316 µM): 52.4%
viability, T/C (second compound 0.1 µM, first compound 0.01 µM): 45%
viability, T/C [3]: 38.1%
viability, T/C [4]: 47.6%
viability, T/C (second compound 0.316 µM, first compound 0.000316 µM): 75.1%
viability, T/C (second compound 0.316 µM, first compound 0.001 µM): 53.8%
viability, T/C (second compound 0.316 µM, first compound 0.00316 µM): 65.9%
viability, T/C (second compound 0.316 µM, first compound 0.01 µM): 66.9%
viability, T/C [5]: 34.7%
viability, T/C [6]: 44.7%
viability, T/C (second compound 1 µM, first compound 0.000316 µM): 43.6%
viability, T/C (second compound 1 µM, first compound 0.001 µM): 55.4%
viability, T/C (second compound 1 µM, first compound 0.00316 µM): 51.6%
viability, T/C (second compound 1 µM, first compound 0.01 µM): 42.1%
viability, T/C [7]: 37.3%
viability, T/C [8]: 37%
viability, T/C (second compound 3.16 µM, first compound 0.000316 µM): 62.5%
viability, T/C (second compound 3.16 µM, first compound 0.001 µM): 58.9%
viability, T/C (second compound 3.16 µM, first compound 0.00316 µM): 38.3%
viability, T/C (second compound 3.16 µM, first compound 0.01 µM): 49.3%
viability, T/C [9]: 32%
viability, T/C [10]: 31.5%
viability, T/C (second compound 10 µM, first compound 0.000316 µM): 51.8%
viability, T/C (second compound 10 µM, first compound 0.001 µM): 43.8%
viability, T/C (second compound 10 µM, first compound 0.00316 µM): 40.7%
viability, T/C (second compound 10 µM, first compound 0.01 µM): 47.5%
viability, T/C [11]: 43.8%
viability, T/C [12]: 21.3%

CC1(C)CCC(CN2CCN(c3ccc(C(=O)NS(=O)(=O)c4ccc(NCC5CCOCC5)c([N+](=O)[O-])c4)c(Oc4cnc5[nH]ccc5c4)c3)CC2)=C(c2ccc(Cl)cc2)C1 + Cc1nc(NC(=O)N2CCCC2C(N)=O)sc1-c1ccnc(C(C)(C)C(F)(F)F)c1
pIC50 (second compound 0.0316 µM): 5.30
pIC50 (second compound 0.1 µM): 5.37
pIC50 (second compound 0.316 µM): 5.41
pIC50 (second compound 1 µM): 5.46
pIC50 (second compound 3.16 µM): 5.32
pIC50 (second compound 10 µM): 5.61
viability, T/C [1]: 86.7%
viability, T/C [2]: 69.7%
viability, T/C [13]: 119%
viability, T/C [14]: 42.6%
viability, T/C [15]: 84.3%
viability, T/C [16]: 4.12%
viability, T/C [3]: 97.7%
viability, T/C [4]: 67.1%
viability, T/C [17]: 98.3%
viability, T/C [18]: 87.8%
viability, T/C [19]: 65.6%
viability, T/C [20]: 4.95%
viability, T/C [5]: 67.2%
viability, T/C [6]: 58.8%
viability, T/C [21]: 72.7%
viability, T/C [22]: 70.4%
viability, T/C [23]: 58.6%
viability, T/C [24]: 6.66%
viability, T/C [7]: 65.9%
viability, T/C [8]: 67.7%
viability, T/C [25]: 82.7%
viability, T/C [26]: 72.6%
viability, T/C [27]: 54.1%
viability, T/C [28]: 3.59%
viability, T/C [9]: 73.6%
viability, T/C [10]: 62.2%
viability, T/C [29]: 104%
viability, T/C [30]: 72.2%
viability, T/C [31]: 74.2%
viability, T/C [32]: 5.23%
viability, T/C [11]: 81.1%
viability, T/C [12]: 89.8%
viability, T/C [33]: 57.6%
viability, T/C [34]: 78.8%
viability, T/C [35]: 42%
viability, T/C [36]: 2.17%

C[C@@H](NC(=O)c1ncnc(N)c1Cl)c1ncc(C(=O)Nc2cc(C(F)(F)F)c(Cl)cn2)s1 + Cc1nc(NC(=O)N2CCCC2C(N)=O)sc1-c1ccnc(C(C)(C)C(F)(F)F)c1
pIC50 (second compound 0.0316 µM): < 5.00
pIC50 (second compound 0.1 µM): < 5.00
pIC50 (second compound 0.316 µM): < 5.00
pIC50 (second compound 1 µM): < 5.00
pIC50 (second compound 3.16 µM): < 5.00
pIC50 (second compound 10 µM): > 7.50
viability, T/C [1]: 106%
viability, T/C [2]: 74.4%
viability, T/C [13]: 71.9%
viability, T/C [14]: 68.5%
viability, T/C [15]: 96.3%
viability, T/C [16]: 88.2%
viability, T/C [3]: 77.5%
viability, T/C [4]: 86.3%
viability, T/C [17]: 81.1%
viability, T/C [18]: 72.4%
viability, T/C [19]: 70.7%
viability, T/C [20]: 83%
viability, T/C [5]: 79.8%
viability, T/C [6]: 85.9%
viability, T/C [21]: 61.9%
viability, T/C [22]: 59.4%
viability, T/C [23]: 80.7%
viability, T/C [24]: 65.6%
viability, T/C [7]: 56%
viability, T/C [8]: 86.5%
viability, T/C [25]: 74.9%
viability, T/C [26]: 96.6%
viability, T/C [27]: 61.9%
viability, T/C [28]: 93.9%
viability, T/C [9]: 73.8%
viability, T/C [10]: 53.8%
viability, T/C [29]: 70.5%
viability, T/C [30]: 84.8%
viability, T/C [31]: 102%
viability, T/C [32]: 74.5%
viability, T/C [11]: 45.7%
viability, T/C [12]: 31.2%
viability, T/C [33]: 61.7%
viability, T/C [34]: 54.3%
viability, T/C [35]: 94.9%
viability, T/C [36]: 42.3%
